This is an account of results in PMC2409523, “Hormonal impact of the 17α-hydroxylase/C17,20-lyase inhibitor abiraterone acetate (CB7630) in patients with prostate cancer” (British Journal of Cancer, 2004).

Data set [1] can be described thus: Safety and tolerability in the three phase one trials. Type of data set: in vivo, human. The procedure: Prior to the first dose of therapy a complete history, physical examination and assessment of performance status was performed on all patients. Full-blood count, electrolytes and creatinine, liver function, urinanalysis, electrocardiograph and chest X-ray were obtained from all patients. The ECG was repeated 6 h after dosing. On the day of therapy heart rate, blood pressure and temperature were recorded every 4 h and then daily at the time of blood sampling. Thereafter, full-blood count, electrolytes, creatinine and liver function were re-evaluated on Days 2 and 7. Toxicity was recorded using the NCI-CTG Expanded Common Toxicity Criteria V1.

The test system of the next data set is 17α hydroxylation. Also on record: method as in Barrie et al, 1994; Dowsett et al, 1988. To be noted: preclinical studies, correlative evidence of inhibition of 17α hydroxylation; ref Barrie et al, 1994; Dowsett et al, 1988; cited from earlier work.

Take `CC(=O)O[C@H]1CC[C@@]2(C)C(=CC[C@@H]3[C@@H]2CC[C@]2(C)C(c4cccnc4)=CC[C@@H]32)C1` [abiraterone acetate]: in data set [1] (all three trials), the “grade three or four toxic events” value was “no grade three or four toxic events”, the “resting heart rate or blood pressure” value was “No alteration”, the serious adverse events entry is on record as “no serious adverse events attributable to treatment” and the tolerability entry is “very well tolerated”. Moreover, the “haematologic or biochemical effects” value in data set [1] (any dose level or schedule evaluated) is listed as “No haematologic or biochemical effects”. Further, the “systemic effects reported by individual patients” value in data set [1] (no relation to dose or schedule apparent) is “Headache, hot flushes, a mild increase in abdominal and testicular pain, and a transient depression in mood (all grade II)”. For the same compound, the “weight of the ventral prostate” value with 17α hydroxylation is listed as “reduced weight of the ventral prostate”.
